Results on one compound are retold here after ChEMBL document CHEMBL5032490, “Neuroactive Type-A γ-Aminobutyric Acid Receptor Allosteric Modulator Steroids from the Hypobranchial Gland of Marine Mollusk, Conus geographus” (J Med Chem, 2021).

Usually IC50 stands for the midpoint of a concentration-inhibition curve.

Active and inactive are the calls of the source.

Test [1] deals with GABA A receptor alpha-4/beta-3/gamma-2 (Homo sapiens, UniProt P18507+P28472+P48169). The experiment in a line: Negative allosteric modulation activity at human GABAA alpha4beta3gamma2 stably expressed in HEK cells by patch clamp method. It counts as cell-based. On the technique in general: Patch clamp records ionic current or voltage across a cell membrane.
Test [2] has as its system Neuron. Description: Negative allosteric modulation of mouse GABA receptor in mouse non-peptidergic nociceptive DRG neurons assessed as inhibition of KCl-induced response at 10 uM. Format: tissue-based. The conditions noted are these: filed as negative allosteric modulator.
The nature of test [3]: Induction of ATP and Kcl-induced increase in cytosolic Ca2+ ion concentration mouse non-peptidergic nociceptive DRG neuron assessed as neuron population at 10 uM measured after 1 hr by Fura2AM dye based fluorescence microscopic analysis. It counts as functional.
Test [4] in a line: Induction of cytosolic calcium ion concentration in mouse non-peptidergic nociceptive DRG neuron at 10 uM measured after 1 hr by Fura2AM dye based fluorescence microscopic analysis. Format: functional.
Test [5] has as its system Mus musculus. Description: Anxiolytic activity in restraint stress induced anxiety mouse model assessed as total number of responses at 2 to 50 mg/kg, ip administered measured after 5 mins by open field test. Format: functional, organism-based. Particulars: dose 2-50 mg/kg.
Test [6] concerns the target T1, GABA-A receptor; alpha-2/beta-3/gamma-2 (Homo sapiens, UniProt P18507+P28472+P47869).
T1 sequence (P18507 whole entry): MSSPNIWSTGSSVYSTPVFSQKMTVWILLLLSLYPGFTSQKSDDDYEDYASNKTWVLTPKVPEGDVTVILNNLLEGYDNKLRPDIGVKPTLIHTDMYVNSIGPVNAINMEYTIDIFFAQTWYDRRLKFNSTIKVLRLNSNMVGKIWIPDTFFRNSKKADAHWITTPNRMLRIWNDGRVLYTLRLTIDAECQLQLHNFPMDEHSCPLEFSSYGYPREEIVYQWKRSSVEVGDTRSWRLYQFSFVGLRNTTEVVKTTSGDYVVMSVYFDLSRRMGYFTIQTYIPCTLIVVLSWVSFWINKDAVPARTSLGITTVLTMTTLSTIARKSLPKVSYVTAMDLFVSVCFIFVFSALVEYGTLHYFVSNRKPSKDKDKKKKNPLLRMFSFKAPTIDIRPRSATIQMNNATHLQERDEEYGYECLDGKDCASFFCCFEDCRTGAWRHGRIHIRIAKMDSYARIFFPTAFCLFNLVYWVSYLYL
T1 sequence (P28472 whole entry): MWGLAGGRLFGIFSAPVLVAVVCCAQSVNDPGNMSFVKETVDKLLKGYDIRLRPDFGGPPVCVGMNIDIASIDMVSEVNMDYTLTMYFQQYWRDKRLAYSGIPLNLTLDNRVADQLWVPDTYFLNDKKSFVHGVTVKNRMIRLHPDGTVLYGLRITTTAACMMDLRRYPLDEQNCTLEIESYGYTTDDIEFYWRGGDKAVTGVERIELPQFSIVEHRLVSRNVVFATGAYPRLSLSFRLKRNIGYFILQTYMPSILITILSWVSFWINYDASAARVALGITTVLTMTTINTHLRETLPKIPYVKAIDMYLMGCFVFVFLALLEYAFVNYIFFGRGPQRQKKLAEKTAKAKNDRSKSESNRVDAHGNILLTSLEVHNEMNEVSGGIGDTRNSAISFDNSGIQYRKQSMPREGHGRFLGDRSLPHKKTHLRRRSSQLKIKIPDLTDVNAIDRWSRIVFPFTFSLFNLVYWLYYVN
T1 sequence (P47869 whole entry): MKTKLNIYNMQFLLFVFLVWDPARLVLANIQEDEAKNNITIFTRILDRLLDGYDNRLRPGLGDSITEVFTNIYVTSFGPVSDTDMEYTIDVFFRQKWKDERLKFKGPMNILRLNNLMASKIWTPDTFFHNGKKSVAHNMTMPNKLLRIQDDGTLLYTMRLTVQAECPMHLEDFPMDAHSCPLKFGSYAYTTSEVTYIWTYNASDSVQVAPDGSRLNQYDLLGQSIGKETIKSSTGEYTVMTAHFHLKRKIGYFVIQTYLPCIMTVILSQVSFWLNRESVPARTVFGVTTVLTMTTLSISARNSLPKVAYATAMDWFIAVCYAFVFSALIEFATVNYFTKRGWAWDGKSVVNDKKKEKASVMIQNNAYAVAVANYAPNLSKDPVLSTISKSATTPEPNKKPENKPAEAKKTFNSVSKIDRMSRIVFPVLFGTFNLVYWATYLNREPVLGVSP
The experiment in a line: Negative allosteric modulation activity at human GABAA alpha2beta3gamma2 stably expressed in HEK cells by whole cell patch clamp method. Format: cell-based.

Test [7] is described as follows: Induction of cytosolic calcium ion concentration in mouse DRG other neuron subtype at 10 uM measured after 1 hr by Fura2AM dye based fluorescence microscopic analysis. It counts as functional.
For test [8], the system named is Neuron. Description: Negative allosteric modulation of human GABA receptor expressed in mouse DRG neurons assessed as inhibition of 340 nM GABA-induced responses at 0.5 uM using c-LTMRS. It counts as tissue-based. The conditions noted are these: filed as negative allosteric modulator.
Test [9] is described as follows: Reduction of ATP and Kcl-induced increase in cytosolic Ca2+ ion concentration mouse non-peptidergic nociceptive DRG neuron assessed as neuron population at 10 uM measured after 1 hr by Fura2AM dye based fluorescence microscopic analysis. It counts as functional. Further details: scale not given: the % may be the effect or the level left.
In test [10] the test system is Mus musculus. Description: Antinociceptive activity in C57BL6 mouse model of inflammatory pain assessed as total number of responses during second phase at 2 to 50 mg/kg, ip administered by formalin test. It counts as functional, organism-based. The conditions noted are these: dose 2-50 mg/kg.
Test [11] can be described thus: Induction of cytosolic calcium ion concentration in mouse microglia cells at 10 uM measured after 1 hr by Fura2AM dye based fluorescence microscopic analysis. It counts as functional.
Test [12] in a line: Induction of ATP and Kcl-induced increase in cytosolic Ca2+ ion concentration mouse DRG other neuron subtype assessed as neuron population at 10 uM measured after 1 hr by Fura2AM dye based fluorescence microscopic analysis. Format: functional.
Test [13] deals with Neuron. The experiment in a line: Negative allosteric modulation of human GABA receptor expressed in mouse DRG neurons assessed as inhibition of 340 nM GABA-induced responses at 0.5 uM using cold thermo-sensors. It counts as tissue-based. Particulars: filed as negative allosteric modulator.
The subject of test [14] is HEK. The experiment in a line: Negative allosteric modulation of human GABA receptor expressed in HEK cells assessed as inhibition of GABA-induced current in presence of EC20 concentration of GABA by patch clamp method. Particulars: filed as negative allosteric modulator. It counts as cell-based.
In test [15] the test system is Neuron. Description: Negative allosteric modulation of human GABA receptor expressed in mouse DRG neurons assessed as inhibition of 500 nM GABA-induced response at 0.5 uM. It counts as tissue-based. Particulars: filed as negative allosteric modulator.
Test [16] deals with Neuron. Description: Negative allosteric modulation of mouse GABA receptor in mouse peptidergic nociceptive DRG neurons assessed as inhibition of KCl-induced response at 10 uM. Format: tissue-based. The conditions noted are these: filed as negative allosteric modulator.
Test [17] relates to Neuron. The experiment in a line: Negative allosteric modulation of mouse GABA receptor in mouse C-low-threshold mechanoreceptive DRG neurons assessed as inhibition of KCl-induced response at 10 uM. It counts as tissue-based. The conditions noted are these: filed as negative allosteric modulator.
Test [18] can be described thus: Reduction of ATP and Kcl-induced increase in cytosolic Ca2+ ion concentration mouse DRG other neuron subtype assessed as neuron population at 10 uM measured after 1 hr by Fura2AM dye based fluorescence microscopic analysis. It counts as functional. Further details: scale not given: the % may be the effect or the level left.
The subject of test [19] is Neuron. Description: Negative allosteric modulation of mouse GABA receptor in mouse C-low-threshold mechanoreceptive DRG neurons assessed as inhibition of KCl-induced response at 40 uM. Particulars: filed as negative allosteric modulator. It counts as tissue-based.
The test system of test [20] is Neuron. The experiment in a line: Negative allosteric modulation of mouse GABA receptor in mouse DRG neurons assessed as inhibition of KCl-induced response at 10 uM using cold thermosensors. Format: tissue-based. The conditions noted are these: filed as negative allosteric modulator.

Chain of GABA A receptor alpha-4/beta-3/gamma-2 (P48169 whole entry, one chain of several): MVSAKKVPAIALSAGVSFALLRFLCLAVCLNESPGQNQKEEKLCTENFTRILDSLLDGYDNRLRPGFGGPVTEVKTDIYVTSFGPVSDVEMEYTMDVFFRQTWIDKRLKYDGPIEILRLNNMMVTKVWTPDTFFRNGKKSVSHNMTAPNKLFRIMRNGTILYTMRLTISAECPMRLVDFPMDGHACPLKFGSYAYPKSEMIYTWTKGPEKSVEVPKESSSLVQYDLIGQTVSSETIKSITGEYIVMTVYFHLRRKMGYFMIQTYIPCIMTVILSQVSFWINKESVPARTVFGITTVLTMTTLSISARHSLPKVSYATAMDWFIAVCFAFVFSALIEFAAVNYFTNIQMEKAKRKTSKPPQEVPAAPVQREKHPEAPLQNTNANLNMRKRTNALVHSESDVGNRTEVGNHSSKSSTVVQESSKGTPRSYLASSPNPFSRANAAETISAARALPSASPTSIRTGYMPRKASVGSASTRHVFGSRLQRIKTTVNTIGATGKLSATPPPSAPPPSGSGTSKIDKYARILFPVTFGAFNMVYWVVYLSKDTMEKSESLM

As for `CC(C)CCC[C@@H](C)[C@H]1CC[C@H]2[C@@H]3C(=O)C=C4C=CCC[C@]4(C)[C@H]3CC[C@]12C`, the IC50 in test [1] amounted to 1000 nM; in [6], 15.7 µM. The outcome in test [2], in test [8], in [13], in test [14], in test [15] and in test [16] was Active. Moreover, the outcome in [17], in test [19] and in [20] was Active. Also, the Activity in [3] amounted to 39%; in [4], 27%; in test [7], 3%; in test [9] it was 9%; in [11], 7%; in test [12], 7%. In test [18], the Activity was found to be 5%. The result in [5] and in test [10] was inactive.
